Source: patent publication US7569542B2, “Anti-microbial targeting chimeric pharmaceutical” (priority 1999, dated 2009)
Where no end group is shown, it is not given here.

Tests used:
[1] = tested on: P. mendocina; assay: Selective killing in mixed culture of P. mendocina and E. coli W3110; format: cell-based; conditions: 6 μM peptide, 4 min; mixed with E. coli W3110; preliminary results
Procedure: (§1) To test if G10CatC can selectively kill its target bacteria in a mixed culture, 10^5 of P. mendocina and E. coli W3110 cells were mixed and treated with 6 μM G10 or G10CatC peptides. Samples were taken at 30 sec. 1 min, 2 min, and 4 min, and survivors were counted by plating assays.

[2] = tested on: E. coli W3110; assay: as above; format: cell-based; conditions: 6 μM peptide, 4 min; mixed with P. mendocina; preliminary results
Procedure: as §1

[3] = tested on: P. tabaci; format: cell-based
Procedure: (§2) To test the antimicrobial activity of the fusion peptides against target bacteria, a panel of bacteria, both gram positive and gram negative, were tested.

[4] = tested on: S. oralis; format: cell-based
Procedure: as §2

[5] = tested on: S. sanguis; format: cell-based
Procedure: as §2

[6] = tested on: Salmonella Lt2 (ATCC); format: cell-based
Procedure: as §2

[7] = tested on: Y. entercolitica; format: cell-based
Procedure: as §2

[8] = tested on: E. coli 3132 (wt); format: cell-based
Procedure: as §2

[9] = tested on: S. mutans 140; format: cell-based
Procedure: as §2

[10] = tested on: P. fluorescens 1088; format: cell-based
Procedure: as §2

[11] = tested on: E. coli Aw405; format: cell-based
Procedure: as §2

[12] = tested on: S. mutans 159; format: cell-based
Procedure: as §2

[13] = tested on: E. coli Mg1665 (smooth); format: cell-based
Procedure: as §2

[14] = tested on: Myxococcus; format: cell-based
Procedure: as §2

[15] = tested on: P. fluorescens 1089; format: cell-based
Procedure: as §2

[16] = tested on: P. mendocina; format: cell-based
Procedure: as §2

[17] = tested on: P. aeruginosa Pak; format: cell-based; conditions: for MBC: Pak
Procedure: as §2

[18] = tested on: E. coli W3110 ampR; format: cell-based
Procedure: as §2

[19] = tested on: S. mitis; format: cell-based
Procedure: as §2

[20] = tested on: B. cepacia; format: cell-based
Procedure: as §2

[21] = tested on: E. coli W3110; format: cell-based
Procedure: as §2

[22] = tested on: S. aureus; format: cell-based
Procedure: as §2

[23] = tested on: Klebsiella Kay2026; format: cell-based
Procedure: as §2

[24] = tested on: P. aeruginosa Pak (ATCC); format: cell-based
Procedure: as §2

[25] = tested on: S. mutans cells; assay: Selective killing in mixed culture of PAK and S. mutans cells; format: cell-based; conditions: 9 μM peptide, within 4 min; mixed with PAK cells
Source text: (§3) In contrast, G10CatC killed over 90% of PAK cells, but none of S. mutans cells.

[26] = tested on: P. mendocina; format: cell-based, Pseudomonas mendocina
Procedure: (§4) Briefly, varying concentrations of peptide G10, G10CatC, or G10CatN was added to 10^5 of target bacterial cells and survivors were counted by plating samples after 0.5, 1, 2 and 4 minutes of peptide exposure.

[27] = tested on: P. mendocina; assay: Long-term time-kill experiment (up to 2 h); format: cell-based, Pseudomonas mendocina; conditions: for time to kill all input P. mendocina cells: 3 μM peptide; for surviving P. mendocina cells: 9 μM peptide
Procedure: Similar to the short-term kinetic studies described above, treatment with 3 μM G10CatC killed all input P. mendocina cells within 30 min, in contrast, it took 2 h for G10 alone to kill all input P. mendocina cells at the same concentration.

[28] = tested on: S. sanguis
[29] = tested on: Host cells; assay: Minimal Inhibitory Concentrations; format: cell-based
[30] = tested on: S. mutans
[31] = tested on: PAK cells; assay: Selective killing in mixed culture of PAK and S. mutans cells; format: cell-based, P. aeruginosa; conditions: 9 μM peptide, within 4 min; mixed with S. mutans
Source text: as §3

[32] = tested on: PAK cells; format: cell-based, Pseudomonas aeruginosa PAK; conditions: 18 μM peptide, up to 4 min
Procedure: as §4

[33] = Antimicrobial activity of targeting peptide alone; format: cell-based
[34] = tested on: PAK cells; assay: Competition-binding experiment, labeled vs unlabeled Cat-1, fluorescent microscopy; parameters: species or system P. aeruginosa
Procedure: To further confirm the specificity of Cat-1 binding to Pak cells, competition-binding experiments were conducted. Labeled Cat-1 was mixed with increasing concentrations of unlabeled Cat-1, and fluorescent labeling of the target bacterial cells was measured by fluorescent microscopy.

In the case of “KKHRKHRKHRKHGGSGGSKNLRRIIRKGIHIIKKYG [G10CatC]”, the “live P. mendocina cells in mixed culture” value [1] is reported as “no live P. mendocina cells could be detected”, the “live W3110 cells in mixed culture” value [2] is reported as “remained nearly unchanged” and the MBC [3] is reported as 2.175 µM. For the same compound, the MBC [4] was greater than 58 µM, the MBC [5] was 3.6 to 7.25 µM and the MBC [6] was 11.6 to 23.2 µM. It also gave an MBC [7] of 23.2 µM, an MBC [8] of 5.8 µM and an MBC [9] of 3.6 to 7.25 µM. For the same compound, the MBC [10] was 1.45 µM, the MBC [11] was 11.6 µM and the MBC [12] was 3.6 to 7.25 µM. The MBC [13] was 2.9 µM, the MBC [14] was greater than 11.6 µM and the MBC [15] was 2.9 µM. The MBC [16] was 1.4 to 2.4 µM, the “MBC relative to G10 alone (higher)” value ([16]; P. mendocina) was 2 × and the “decrease of killing activity relative to G10” value ([16]; against P. mendocina, from MBC) was 2 fold. For the same compound, the MBC [17] was 1.4 to 2.9 µM, the “enhancement of killing activity relative to G10” value ([17]; against Pak, from MBC) was 38 fold and the MBC [18] was 2.9 µM. The MBC [19] was greater than 58 µM, the MBC [20] was 13 µM and the MBC [21] was 2.81 µM. It also gave an MBC [22] greater than 23.2 µM, an MBC [23] of 11.6 to 23.2 µM and an MBC [24] of 4.9 µM. The “killing of S. mutans cells in mixed culture” value [25] was “none”, the “time to reduce live P. mendocina cells to below detectable levels” value ([26]; 3 μM peptide) was no more than 4 min and the “time to kill all input P. mendocina cells” value [27] was no more than 30 min. For the same compound, the “surviving P. mendocina cells” value ([27]; after 2 minutes of treatment) was “no surviving P. mendocina cells were recovered”.

For `C[C@H](NC(=O)[C@H](Cc1cnc[nH]1)NC(=O)[C@H](CO)NC(=O)[C@@H](N)CC(=O)O)C(=O)N[C@@H](CCCCN)C(=O)N[C@@H](CCCNC(=N)N)C(=O)N[C@@H](Cc1cnc[nH]1)C(=O)N[C@@H](Cc1cnc[nH]1)C(=O)NCC(=O)N[C@@H](Cc1ccc(O)cc1)C(=O)N[C@@H](CCCCN)C(=O)N[C@@H](CCCNC(=N)N)C(=O)N[C@@H](CCCCN)C(=O)N[C@@H](Cc1ccccc1)C(=O)N[C@@H](Cc1cnc[nH]1)C(=O)N[C@@H](CCC(=O)O)C(=O)N[C@@H](CCCCN)C(=O)N[C@@H](Cc1cnc[nH]1)C(=O)N[C@@H](Cc1cnc[nH]1)C(=O)N[C@@H](CO)C(=O)N[C@@H](Cc1cnc[nH]1)C(=O)N[C@@H](CCCNC(=N)N)C(=O)NCC(=O)N[C@@H](Cc1ccc(O)cc1)C(=O)O` [Histatin 5, DSHAKRHHGY KRKFHEKHHS HRGY], the “Minimal Inhibitory Concentrations” value [28] was roughly 10 µM, the “Minimal Inhibitory Concentrations” value [29] was greater than 50 µM and the “Minimal Inhibitory Concentrations” value [30] was roughly 10 µM.

In the case of “KNLRRIIRKGIHIIKKYG [G10, KNLRRIIRKGIHIIKKYG, reference compound]”, the “killing of PAK cells in mixed culture” value [31] is reported as “did not kill any of the cells”, the “live P. mendocina cells in mixed culture” value [1] is reported as “did not affect the survival” and the “live W3110 cells in mixed culture” value [2] is reported as “did not affect the survival”. It also gave an MBC [3] of 5.625 µM, an MBC [4] greater than 58 µM and an MBC [5] of 3.5 to 7.03 µM. The MBC [6] was greater than 22.5 µM, the MBC [7] was 22.5 µM and the MBC [8] was 11.25 µM. The MBC [9] was 3.5 to 7.03 µM, the MBC [10] was 1.4 µM and the MBC [11] was 2.8 µM. The MBC [12] was 3.5 to 7.03 µM, the MBC [13] was 2.8 µM and the MBC [14] was greater than 11.25 µM. It also gave an MBC [15] greater than 11.25 µM, an MBC [16] of 1.05 µM and an MBC [17] of 54.5 µM. The MBC [18] was 2.8 µM, the MBC [19] was greater than 58 µM and the MBC [20] was 23 µM. It also gave an MBC [21] of 1.4 µM, an MBC [22] greater than 22.5 µM and an MBC [23] greater than 11.25 µM. For the same compound, the MBC [24] was 42.18 µM, the “killing of S. mutans cells in mixed culture” value [25] was “did not kill any of the cells” and the killing activity [32] was “did not show any killing activity”. The killing activity ([26]; 3 μM peptide, within 4 min) was “did not display any killing activity”, the “time to kill all input P. mendocina cells” value [27] was 120 min and the “surviving P. mendocina cells” value ([27]; after 30 minutes of exposure) was “a significant number of cells were recovered”.

“KNLRRIIRKGIHIIKKYGGGSGGSKKHRKHRKHRKH [G10CatN]” showed an MBC [3] greater than 11.6 µM, an MBC [6] greater than 23.2 µM and an MBC [7] greater than 23.2 µM. It also gave an MBC [8] of 11.6 µM, an MBC [10] of 1.45 µM and an MBC [11] greater than 23.2 µM. For the same compound, the MBC [13] was greater than 23.2 µM, the MBC [14] was greater than 11.6 µM and the MBC [15] was 11.6 µM. The MBC [16] was 2.8 µM, the MBC [17] was 45 µM and the MBC [20] was 11.6 µM. The MBC [21] was greater than 11.6 µM, the MBC [22] was greater than 23.2 µM and the MBC [23] was greater than 11.6 µM. For the same compound, the MBC [24] was 17.4 µM and the killing ([26]; any concentration tested, through 4 minutes) was “no killing”.

In the case of “KKHRKHRKHRKH (Design peptide) [Cat-1, 61]”, the antimicrobial activity [33] is reported as “does not have any antimicrobial activity”, the “fluorescent signal of labeled Cat-1 on PAK cells” value ([34]; 10× molar excess unlabeled Cat-1) is reported as “completely abolished” and the “fluorescent signal of labeled Cat-1 on PAK cells” value ([34]; equal molar concentration of unlabeled Cat-1 added) is reported as “reduced”.
